Tests used:
[1] = mn = molality of the nth substance listed, in mol/kg; details: 100 kPa, Liquid; for viscosity: Falling or rolling sphere viscometry; for speed of sound: Frequency=3 MHz, Sing-around technique in a fixed-path interferometer; for mass density: Vibrating tube method
[2] = 100 kPa, Liquid, Falling or rolling sphere viscometry

CC(=O)NCC(=O)O [N-acetylglycine] + O
[1]
Details | mass density, m1 = 0.05 [kg/m3] | mass density, m1 = 0.1 [kg/m3] | mass density, m1 = 0.2 [kg/m3] | speed of sound, m1 = 0.05 [m/s] | speed of sound, m1 = 0.1 [m/s] | speed of sound, m1 = 0.2 [m/s] | viscosity, m1 = 0.05 [mPa·s] | viscosity, m1 = 0.1 [mPa·s] | viscosity, m1 = 0.2 [mPa·s]
288.15 K | 1001.32 | 1002.84 | 1005.54 | 1468.9 | 1472.1 | 1476.4 | 1.091 | 1.151 | 1.187
293.15 K | 1000.04 | 1001.89 | 1004.84 | 1484.8 | 1486.7 | 1491.2 | 0.9664 | 1.019 | 1.048
298.15 K | 998.801 | 1000.37 | 1003.79 | 1499.6 | 1501.3 | 1504.5 | 0.863 | 0.9071 | 0.9357
303.15 K | 997.363 | 998.824 | 1002.6 | 1514 | 1516.3 | 1519 | 0.8379 | 0.8579 | 0.8904
308.15 K | 995.711 | 997.285 | 1001.3 | 1521.7 | 1524.7 | 1527.2 | 0.7411 | 0.7624 | 0.7856

O [water]
[2]
Details | viscosity [mPa·s]
288.15 K | 1.043
293.15 K | 0.9312
298.15 K | 0.8319
303.15 K | 0.7981
308.15 K | 0.7202

O [water] + CC(=O)NCC(=O)O
[1], m2 = 0
Details | viscosity [mPa·s]
288.15 K | 1.043
293.15 K | 0.9312
298.15 K | 0.8319
303.15 K | 0.7981
308.15 K | 0.7202

O [water] + O=P([O-])([O-])O.[K+].[K+]
[1], m2 = 0
Details | viscosity [mPa·s]
288.15 K | 1.043
293.15 K | 0.9312
298.15 K | 0.8319
303.15 K | 0.7981
308.15 K | 0.7202

O [water] + O=P([O-])([O-])O.[Na+].[Na+]
[1], m2 = 0
Details | viscosity [mPa·s]
288.15 K | 1.043
293.15 K | 0.9312
298.15 K | 0.8319
303.15 K | 0.7981
308.15 K | 0.7202

— the NIST ThermoML archive (doi:10.1016/j.jct.2015.10.017)
